The test system of test [1] is Staphylococcus aureus. Put plainly: Antibiofilm activity against 24 hrs preformed methicillin-resistant Staphylococcus aureus SAP0017 biofilm assessed as reduction in biofilm viability at 7.2 to 30.3 uM by TTC assay relative to control. The test is classed as functional. The settings on record: dose microM 7.2-30.3.
For test [2], the system named is Staphylococcus aureus. Put plainly: Antibiofilm activity against 24 hrs preformed methicillin-resistant Staphylococcus aureus USA300 LAC biofilm assessed as reduction in biofilm viability at 7.2 to 30.3 uM by TTC assay relative to control. The settings on record: dose microM 7.2-30.3. The test is classed as functional.
The subject of test [3] is Staphylococcus aureus. Put plainly: Antibiofilm activity against 24 hrs preformed methicillin-resistant Staphylococcus aureus SAP0017 biofilm assessed as reduction in biofilm viability at 100 ug/ml by TTC assay. The test is classed as functional, organism-based. The settings on record: dose 100.0 µg/ml.
The test system of test [4] is Staphylococcus aureus. Put plainly: Antibiofilm activity against 24 hrs preformed methicillin-resistant Staphylococcus aureus USA300 LAC biofilm assessed as reduction in biofilm viability at 100 ug/ml by TTC assay. The format is functional, organism-based. Conditions: dose 100.0 µg/ml.

Activity calls are given as the source filed them. The rule behind the calls is not given here. Where a SMILES comes first, the peptide text is derived from it. Bridges are numbered along the chain shown (N, C = ends).

In the case of H-VRLIVAVRIWRR-NH2, the Activity in the test on Staphylococcus aureus [1] and in the test with Staphylococcus aureus [2] was 70% in each case.
`CC[C@H](C)[C@@H]1NC(=O)[C@H](CCCNC(=N)N)NC(=O)[C@H](C(C)C)NC(=O)[C@H](C)NC(=O)[C@H](C(C)C)NC(=O)[C@H]([C@@H](C)CC)NC(=O)[C@H](CC(C)C)NC(=O)[C@H](CCCNC(=N)N)NC(=O)[C@H](C(C)C)NC(=O)CC[C@@H](C(N)=O)NC(=O)[C@H](CCCNC(=N)N)NC(=O)[C@H](CCCNC(=N)N)NC(=O)[C@H](Cc2c[nH]c3ccccc23)NC1=O` (VRLIVAVRIWRRE-NH2; lactam N-13): the Activity in the test with Staphylococcus aureus [1] and in the test with Staphylococcus aureus [2] was 70% each time.
For the molecule `CN[C@H](CC(C)C)C(=O)N[C@H]1C(=O)N[C@@H](CC(N)=O)C(=O)N[C@H]2C(=O)N[C@H]3C(=O)N[C@H](C(=O)N[C@H](C(=O)O)c4cc(O)cc(O)c4-c4cc3ccc4O)[C@H](O)c3ccc(c(Cl)c3)Oc3cc2cc(c3O[C@@H]2O[C@H](CO)[C@@H](O)[C@H](O)[C@H]2O[C@H]2C[C@](C)(N)[C@H](O)[C@H](C)O2)Oc2ccc(cc2Cl)[C@H]1O` [VANCOMYCIN], the outcome with Staphylococcus aureus [3] and in the test on Staphylococcus aureus [4] was inactive.

These data come from ChEMBL document CHEMBL4725351, “Cyclic Derivative of Host-Defense Peptide IDR-1018 Improves Proteolytic Stability, Suppresses Inflammation, and Enhances In Vivo Activity” (J Med Chem, 2020).
